Biological target: T1, OATP1A2 (Homo sapiens, UniProt P46721)
T1 sequence (P46721 1-670): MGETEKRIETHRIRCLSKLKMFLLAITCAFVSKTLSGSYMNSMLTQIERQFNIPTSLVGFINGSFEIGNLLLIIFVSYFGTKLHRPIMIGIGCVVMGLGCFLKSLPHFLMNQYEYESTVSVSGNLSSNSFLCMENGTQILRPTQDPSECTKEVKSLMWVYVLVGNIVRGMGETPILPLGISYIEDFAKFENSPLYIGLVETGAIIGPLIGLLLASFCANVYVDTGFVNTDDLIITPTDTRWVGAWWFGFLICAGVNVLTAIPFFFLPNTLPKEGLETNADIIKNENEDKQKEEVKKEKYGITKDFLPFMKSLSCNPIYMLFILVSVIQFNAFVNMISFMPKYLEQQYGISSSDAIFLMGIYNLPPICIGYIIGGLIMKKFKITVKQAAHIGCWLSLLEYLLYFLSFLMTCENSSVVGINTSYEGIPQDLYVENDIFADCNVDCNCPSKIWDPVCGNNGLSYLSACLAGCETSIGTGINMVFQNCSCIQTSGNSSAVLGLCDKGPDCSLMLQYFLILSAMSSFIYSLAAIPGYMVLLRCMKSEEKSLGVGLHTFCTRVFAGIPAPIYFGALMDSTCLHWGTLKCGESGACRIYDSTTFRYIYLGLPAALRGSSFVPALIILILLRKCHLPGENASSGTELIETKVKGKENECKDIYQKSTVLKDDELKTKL
Test: Inhibition of fexofenadine uptake in OATP1A2-transfected HEK293T/17 cells
Type: cell-based
Conditions: inhibitor 250 μmol/l, fexofenadine 5 μmol/l, 30 min

SMILES: O=C1OC(c2ccc(O)c(S(=O)(=O)O)c2)(c2ccc(O)c(S(=O)(=O)O)c2)c2c(Br)c(Br)c(Br)c(Br)c21 [BSP, bromosulfophthalein]
- Inhibition of fexofenadine uptake: did not inhibit
